Experimental data from patent publication US4276286A, “Process for decreasing ammonia concentration in domestic animals or fowls” (Kumiai Chemical Industry Co., Ltd., priority 1975, dated 1981).

What was measured:
[1] = system: ammonia (NH3-N) in portal blood; experiment: Ammonia concentration in portal blood of pigs (modified Fujii-Okuda method); format: in vivo, pig; conditions: 10 ppm in diet, after 2 months; for NH3-N in portal blood: control 6.80
Procedure: (§1) A deproteinizing solution was added to the sample to deproteinize the sample and remove coloration-inhibiting components therefrom and simultaneously deactivate enzymes for preventing formation of ammonia during standing. The supernatant was separated and a coloring solution containing phenol and a nitroprusside salt was added thereto. Then, an alkaline solution was added to the mixture to make it alkaline, and a coloring solution containing sodium hypochlorite was further added to effect oxidation and form indophenol showing a blue color. The absorbance of this color at 630 mμ was measured to determine the ammonia nitrogen concentration. This measurement method is expressed by the following reaction formula: [drawing 1]
(§2) Incidentally, the nitroprusside salt acts as a catalyst in the above reaction.
Young pigs just after weaning were divided into 3 groups, each consisting of 6 pigs. Diets containing 10 ppm of multhiomycin were given to one group, diets containing 10 ppm of thiopeptin as the comparative medicament were given to another group, and a medicament-free diet was given to the remaining one group (control group). After 2 months, with respect to each group, the ammonia concentrations in portal blood were determined according to the modified Fujii-Okuda method.

Acidity = format: physicochemical
bacteria = experiment: In vitro action on bacteria; format: cell-based
[2] = in vivo
[3] = Acute toxicity (general statement); format: in vivo; conditions: in comparison with other antibiotics
[4] = system: ammonia (NH3-N) in contents of the colon; experiment: Ammonia concentration in contents of the colon of chickens (modified Fujii-Okuda method); format: in vivo, chicken; conditions: after 8 weeks, control 155
Procedure: Chickens just after hatching were divided into 5 groups, each consisting of 10 chickens. Diets containing 2.5 ppm or 5.00 ppm of multhiomycin were given to two groups, respectively, and diets containing 2.5 ppm or 5.00 ppm of thiopeptin were given to other two groups (comparative groups), respectively. A medicament-free diet was given to the remaining one group (control group). After 8 weeks, with respect to each group, the ammonia concentrations in the contents of the colon were determined according to a modification of the method of Fujii and Okuda, described hereinafter.
as §1, §2

ammonia = experiment: Ammonia concentration in the animal's body, intestine and blood or excrements (general statement); format: in vivo; conditions: compared with untreated animals
ammonia in excrement = experiment: Ammonia concentration in excrement of chickens (Kitagawa's vacuum gas detector); format: in vivo, chicken
Excerpt: The tests were made on commercially available chickens for exclusive use as broilers (kind: Hubbard). 150 Chickens which were just hatched (male: 75, female: 75) were divided into 3 groups, each consisting of 50 chickens. Basal diets (containing no antibiotics, see Tables 6 and 7) were given to one group, and diets containing 2.5 ppm or 10 ppm of multhiomycin were given to the other two groups. The feed was constantly supplied to each group with water for 8 weeks from the hatching. Each group was bred in one windless cage (1.8×5.4×2.7 m, 9.7 m^2 per group), and each cage was kept warm by circulating warm water under the floor until the chickens were two weeks old. Further, the floor were covered with wood chips in a depth of about 3 cm.
About 6 or 8 weeks from the beginning of the test, the ammonia concentration in excrement was measured in each group. The ammonia concentrations in the excrement were measured with Kitagawa's vacuum gas detector and the moisture content therein was measured with the hot-air drying method whereby 2 kg weight of excrement (containing chips) was treated at 100°±2° C. for 24 hours to measure its moisture content.

mice = experiment: Acute toxicity in mice; format: in vivo, mouse; conditions: injection into abdominal cavity; for LD50 in words: mice, compared with multhiomycin
Procedure: Acute toxins of multhiomycin, thiopeptin and thiostrepton administered to mice, were measured by injection of each drug into the abdominal cavities of the mice.

[5] = Remaining activity of antibiotics in excrement of chickens (microbial quantitative method); conditions: 10 μg/g added to chicken excrement, room temperature
Procedure: (§3) The rise and fall in the activity of the multhiomycin excreted without absorption in the interior of the animal body was compared with the activity of other antibiotics, such as thiopeptin and thiostrepton.
Multhiomycin, thiopeptin and thiostrepton were respectively added to the excrement of chickens bred with the feed containing no antibiotics in a concentration of 10 μg/g. The excrement was preserved under room temperature condition and the remaining potency of each antibiotic in excrement was measured at different time intervals with a microbal quantitative method.

[6] = Behavior of antibiotics in soil (microbial quantitative method); conditions: 10 μg/g added to soil, room temperature
Procedure: as §3
To soils (collected in Kikukawa-cho, Ogasa-gun, Shizuoka-ken, Japan) which were confirmed to have no anti-antibiotic activity were respectively added multhiomycin, thiopeptin and thiostrepton, each containing 10 μg/g concentration of each antibiotic. The soils were preserved under room temperature condition, and the remaining potencies in soils of each antibiotic were measured at different time intervals according to the microbal quantitative method.

| Compound | NH3-N in portal blood, value in parentheses (difference from control) [1] | NH3-N in portal blood [1] | Acidity (Acidity) | Action on bacteria (bacteria) | Amount remaining in internal organs or muscles, in words [2] | Excretion [2] | Acute toxicity in words [3] | NH3-N in contents of colon ([4]; 2.5 ppm in diet) | NH3-N in contents of colon ([4]; 5.0 ppm in diet) | Ammonia in excrement of treated animals, in words (ammonia) | Ammonia concentration in excrement (ammonia in excrement; 2.5 ppm in diet, 6 weeks of age, control 25.5) | Ammonia concentration in excrement (ammonia in excrement; 2.5 ppm in diet, 8 weeks of age, control 29.7) | Ammonia concentration in excrement (ammonia in excrement; 10 ppm in diet, 6 weeks of age, control 25.5) | Ammonia concentration in excrement (ammonia in excrement; 10 ppm in diet, 8 weeks of age, control 29.7) | Acute toxicity LD50 (mice; female mouse) | Acute toxicity LD50 (mice; male mouse) | Deaths (mice; mice, 4,000 mg/kg) | Remaining amount in excrement after 5 days [5] | Remaining ratio in soil after 60 days [6] | LD50 in words (mice) |
| --- | --- | --- | --- | --- | --- | --- | --- | --- | --- | --- | --- | --- | --- | --- | --- | --- | --- | --- | --- | --- |
| C=C(NC(=O)c1csc(-c2nc3c(cc2O)-c2nc(cs2)C(=O)NC(C(C)O)C(=O)NC(=CC)c2nc(cs2)C(=O)NC2CC(O)C(=O)OCc4cccc5[nH]c(c(C)c45)C(=O)SCC(NC(=O)c4csc2n4)c2nc-3cs2)n1)C(N)=O (stereo not drawn) [Multhiomycin] | -3.36 µg/mL | 3.44 µg/mL | slightly acidic | astonishing action on bacteria | so little as to be not perceptible in a recognizable amount | completely excreted | low degree of acute toxicity | 60 μg/g of wet matter | 46 μg/g of wet matter | very small amounts of ammonia | 9.8 ppm | 11.2 ppm | 9.0 ppm | 10.0 ppm | > 4,000 mg/kg | > 4,000 mg/kg | did not cause a single death |  |  |  |
| Thiopeptin | -0.8 µg/mL | 6.00 µg/mL |  |  |  |  |  | 120 μg/g of wet matter | 100 μg/g of wet matter |  |  |  |  |  | 660 mg/kg | 780 mg/kg |  | 52% | 41% | small values of LD50 |
| Thiostrepton |  |  |  |  |  |  |  |  |  |  |  |  |  |  |  | 85 mg/kg |  | 43% | 44% | small values of LD50 |
